According to paper PMC11372076, “A dual inhibitor of PIP5K1C and PIKfyve prevents SARS-CoV-2 entry into cells” (Experimental & Molecular Medicine, 2024):

Experiments:
[1] = system: GFP-PIP5K1C; test: Cellular thermal shift assay (CETSA); assay type: cell-based; details: versus DMSO control, Western blot
Protocol: (§1) The chemically treated cells were heated to 56 °C for 3 min to denature and precipitate nontargeted proteins. The heated cells were immediately snap-frozen in liquid nitrogen overnight. After the cells were frozen and thawed twice, the tubes were briefly vortexed. The resulting cell lysates were subjected to SDS‒PAGE.
(§2) Fig. 1 UNI418 specifically targets PIP5K1 and PIKfyve. a Chemical structure of UNI418. The 4-quinazolinamine core is highlighted in green. b Table of the kinase profiling analysis. Inhibition of several kinases was determined at a 1 μM concentration of UNI418 and analyzed by the SelectScreen Kinase Profiling Service (Thermo Fisher Scientific). c Cellular thermal shift assay. Ectopically expressed GFP-PIP5K1C and GFP-PIKfyve were heated to the indicated temperatures with/without UNI418, and the presence of protein in the soluble fraction was analyzed by Western blot analysis. […]

[2] = system: GFP-PIKfyve; test: Cellular thermal shift assay (CETSA); assay type: cell-based; details: versus DMSO control, Western blot
Protocol: as §1, §2

[3] = system: cathepsin D; test: Cathepsin D maturation by Western blot; assay type: cell-based
[4] = system: ACE2-mediated endocytosis in HEK293T cells; assay type: cell-based; details: 0.5 μM compound, 20 μg/mL spike-RBD, 2 h
[5] = system: SARS-CoV-2; test: microbe, parasite or virus in culture; assay type: cell-based, SARS-CoV-2 (hCoV-19/Korea/KCDC06/2020); details: for EC50: Severe acute respiratory syndrome coronavirus 2, Vero, 48 h, read-out: EC50 (reducing number of spike-positive cells by 50%); for selectivity index (SI), ratio of CC50 to EC50: Vero cells, Day 2
[6] = system: cathepsin L; test: Cathepsin L maturation by Western blot; assay type: cell-based; details: Vero cells
[7] = system: RPE1 cells; test: Western blot of autophagy-monitoring proteins SQSTM1/p62 and LC3-II; assay type: cell-based
Excerpt: Fig. 2 UNI418 inhibits autophagy. a Western blot analysis of p62, LC3B-I, LC3B-II and GAPDH in the presence of UNC3230, apilimod and UNI418. b Immunofluorescence staining with LC3B (green) and p62 (red) antibodies upon treatment with UNC3230, apilimod and UNI418, and images within the white rectangular boxes are magnified on the right side. Scale bar, 20 µm. c The area of fluorescence intensity from immunofluorescence images (b) was quantified after UNC3230, apilimod and UNI418 treatments. d, e Quantification of autophagic flux under normal conditions and under HBSS-induced starvation conditions with or without UNI418 treatment. RPE1 cells were treated with UNI418 (0.5 µM or 1 µM) for 2 h in the presence or absence of a lysosomal inhibitor (bafilomycin A1, BFA). Representative Western blot images (d) and the graph showing the average of 4 independent experiments (e). The error bars indicate the S.D. Statistical analysis was performed using two-way ANOVA; *p < 0.05, ***p < 0.001.
Supplementary Materials and Methods
The whole cell extracts were prepared by lysis of harvested cells with M -PER Mammalian protein extraction reagent (Thermo Fisher Scientific). The protein concentrations were determined by Bradford protein assay (Bio- Rad). The 10 to 20 μ g of prepared proteins were separated by the SDS-PAGE and transferred to PVDF membrane, which were then blocked in 5% skim milk for 30 minutes at room temperature. […] The images were obtained and quantified by Fusion solo ChemiDoc system (Vilber).
Autophagic flux assay was analyzed essentially as previously described1,2.
Briefly, RPE1 cells were treated with UNI418 (0, 0.5, or 1 µM) for 2 h with/without bafilomycin A1 to inhibit lysosomal degradation under normal growth media or HBSS. […] The LC3- II bands were quantified using Fusion Solo ChemiDoc system (Vilber) and normalized to GAPDH bands.
Autophagy flux was calculated by subsidizing the lysosomal inhibitor-treated cells to non- treatment cells in both normal growth media and HBSS-induced starvation with 0, 0.5, or 1 µM UNI418. […]

Row | Structure (SMILES) | thermal stabilization of target protein in soluble fraction [1] | thermal stabilization of target protein in soluble fraction [2] | proteolytic cleavage (maturation) of cathepsin D [3] | ACE2-mediated endocytosis triggered by spike-RBD [4] | EC50 [5] [nM] | selectivity index (SI), ratio of CC50 to EC50 [5] | proteolytic maturation of cathepsin L [6] | accumulation of SQSTM1/p62 and LC3-II [7]
1 | c1ccc(-c2cc(Nc3nc(-c4ccncc4)nc4ccccc34)n[nH]2)cc1 [UNI418, N -(5-phenyl-1 H -pyrazol-3-yl)-2-(4-pyridinyl)-4-quinazolinamine] | more stable at higher temperatures | more stable at higher temperatures | considerably inhibited | successfully inhibited | 1400 | 45.6 | considerably inhibited | strongly induced
2 | Cc1cccc(/C=N/Nc2cc(N3CCOCC3)nc(OCCc3ccccn3)n2)c1 [apilimod] |  |  | largely inhibited | did not obviously inhibit | 300 | 272.6 |  | strongly induced
